ChEMBL document CHEMBL1138642, “In vitro advanced antimycobacterial screening of cobalt(II) and copper(II) complexes of fluorinated isonicotinoylhydrazones” (2004)

How the values were obtained:
[1] = system: Mycobacterium tuberculosis; assay: Minimum bactericidal required against isoniazid resistant Mycobacterium tuberculosis was determined in monolayers of mouse bone marrow macrophages; assay type: functional
[2] = system: Mycobacterium tuberculosis; assay: Minimum inhibition concentration required against isoniazid resistant Mycobacterium tuberculosis was determined in monolayers of mouse bone marrow macrophages; assay type: functional

## NNC(=O)c1ccncc1 [ISONIAZID]
[1]
  MBC: > 1.6 µg/mL
[2]
  MIC: > 0.2 µg/mL
